Here are results for 20 compounds from patent publication US9896441B2 (Lycera Corporation, priority 2014, dated 2018).

One experiment deals with T1, RORγ-LBD (Homo sapiens, UniProt P51449).
T1 construct: made in house; host or cells: SF9 cells (baculovirus); used as diluted lysate
T1 sequence (P51449 269-508 limits assumed): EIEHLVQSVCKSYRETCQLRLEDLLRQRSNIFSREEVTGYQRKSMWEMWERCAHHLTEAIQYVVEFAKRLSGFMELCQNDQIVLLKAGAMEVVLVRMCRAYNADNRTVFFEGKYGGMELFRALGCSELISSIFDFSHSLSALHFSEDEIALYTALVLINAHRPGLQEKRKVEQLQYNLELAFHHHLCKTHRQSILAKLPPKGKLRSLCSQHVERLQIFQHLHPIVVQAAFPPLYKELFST
Put plainly: RORγ-Ligand Binding Domain (LBD) TR-FRET Assay. Conditions: RORγ-LBD TR-FRET. Type of experiment: biochemical. The method in brief: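 His-tagged RORγ-LBD from SF9 baculovirus lysate, ~3 nM final, in 50 mM Tris pH 7.0, 50 mM KCl, 1 mM EDTA, 0.1 mM DTT, 0.01% BSA. Biotinylated SRC1 LXXLL peptide at 200 nM final with 2 μM ursolic acid; TR-FRET read-out, 1% DMSO final.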
Background: TR-FRET usually uses a lanthanide donor and a delayed reading to cut background.

The next experiment addresses T2, Gal4-RORγ-LBD (Homo sapiens, UniProt P51449).
T2 construct: expressed in transfected cells
T2 sequence (P51449 269-508 limits assumed): T1 sequence (P51449 269-508 limits assumed)
Put plainly: Gal4-RORγ Luciferase Reporter Assay in HEK-293T Cells. The format is cell-based. The settings on record: HEK-293 cells, luciferase reporter, with ursolic acid. The procedure, abridged:
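HEK-293 cells were co-transfected with Gal4-RORγ-LBD and a Gal4-luciferase reporter, then exposed overnight at 37 °C to compounds with […] ursolic acid present (0.2% DMSO). Luminescence was read with One-Glo after 10 min at RT, untreated signal was set as 100, and Max Response was taken as the upper plateau of a 4-parameter logistic fit.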
For orientation: A reporter such as luciferase makes a cellular process visible.

For orientation: EC50 means the concentration at which the effect is half-maximal.

A value given as a limit tells only on which side of the number the result lay.

`COC(=O)CC[C@H]1CN(S(=O)(=O)c2cccc(C(F)F)c2)c2cc(/C=C/c3c(Cl)cccc3C(F)F)ccc2O1` [Example 89EQ, methyl (S,E)-3-(6-(2-chloro-6-(difluoromethyl)styryl)-4-((3-(difluoromethyl)phenyl)-sulfonyl)-3,4-dihydro-2H-benzo[b][1,4]oxazin-2-yl)propanoate]: the EC50 at RORγ-LBD and on Gal4-RORγ-LBD was below 500 nM each time.

Consider `COc1cccc(C(F)(F)F)c1/C=C/c1ccc2c(c1)N(S(=O)(=O)c1cccc(C(F)(F)F)c1)C[C@H](CCC(=O)O)O2` [Example 89ER, (S,E)-3-(6-(2-methoxy-6-(trifluoromethyl)styryl)-4-((3-(trifluoromethyl)phenyl)-sulfonyl)-3,4-dihydro-2H-benzo[b][1,4]oxazin-2-yl)propanoic acid], for which the EC50 on RORγ-LBD and on Gal4-RORγ-LBD was below 500 nM throughout.

For `COC(=O)CC[C@H]1CN(S(=O)(=O)c2cccc(C(F)(F)F)c2)c2cc(/C=C/c3c(OC)cccc3C(F)(F)F)ccc2O1` [Example 89ES, methyl (S,E)-3-(6-(2-methoxy-6-(trifluoromethyl)styryl)-4-((3-(trifluoromethyl)phenyl)-sulfonyl)-3,4-dihydro-2H-benzo[b][1,4]oxazin-2-yl)propanoate], the half-maximal effective concentration (EC50) is below 500 nM at RORγ-LBD and 500 to 5000 nM at Gal4-RORγ-LBD.

As to `CCOc1ncc(C(F)(F)F)cc1S(=O)(=O)N1C[C@H](CCC(=O)O)Oc2ccc(/C=C/c3c(OC)cccc3C(F)(F)F)cc21` [Example 89ET, (S,E)-3-(4-((2-ethoxy-5-(trifluoromethyl)pyridin-3-yl)sulfonyl)-6-(2-methoxy-6-(trifluoromethyl)styryl)-3,4-dihydro-2H-benzo[b][1,4]-oxazin-2-yl)propanoic acid], the EC50 on RORγ-LBD and at Gal4-RORγ-LBD was below 500 nM throughout.

Consider `CCOc1ncc(C(F)(F)F)cc1S(=O)(=O)N1C[C@H](CCC(=O)OC)Oc2ccc(/C=C/c3c(OC)cccc3C(F)(F)F)cc21` [Example 89EU, methyl (S,E)-3-(4-((2-ethoxy-5-(trifluoromethyl)pyridin-3-yl)sulfonyl)-6-(2-methoxy-6-(trifluoromethyl)styryl)-3,4-dihydro-2H-benzo[b][1,4]-oxazin-2-yl)propanoate], for which the EC50 at RORγ-LBD is below 500 nM; at Gal4-RORγ-LBD it was 500 to 5000 nM.

Turning to `CC(F)(F)c1cccc(Cl)c1/C=C/c1ccc2c(c1)N(S(=O)(=O)c1cccc(C(F)(F)F)c1)C[C@H](CCC(=O)O)O2` [Example 89EV, (S,E)-3-(6-(2-chloro-6-(1,1-difluoroethyl)styryl)-4-((3-(trifluoromethyl)phenyl)-sulfonyl)-3,4-dihydro-2H-benzo[b][1,4]oxazin-2-yl)propanoic acid], the EC50 at RORγ-LBD was below 500 nM; on Gal4-RORγ-LBD, 5000 to 10000 nM.

As to `COC(=O)CC[C@H]1CN(S(=O)(=O)c2cccc(C(F)(F)F)c2)c2cc(/C=C/c3c(Cl)cccc3C(C)(F)F)ccc2O1` [Example 89EW, methyl (S,E)-3-(6-(2-chloro-6-(1,1-difluoroethyl)styryl)-4-((3-(trifluoromethyl)phenyl)-sulfonyl)-3,4-dihydro-2H-benzo[b][1,4]oxazin-2-yl)propanoate], the EC50 on RORγ-LBD and on Gal4-RORγ-LBD was below 500 nM throughout.

As for `C[C@H]1CN(S(=O)(=O)c2cc(C(F)(F)F)cnc2OCCO)c2cc(/C=C/c3c(Cl)cccc3C(F)(F)F)ccc2O1` [Example 89EX, (S,E)-2-((3-((6-(2-chloro-6-(trifluoromethyl)styryl)-2-methyl-2,3-dihydro-4H-benzo[b][1,4]oxazin-4-yl)sulfonyl)-5-(trifluoromethyl)-pyridin-2-yl)oxy)ethan-1-ol], the values for the 50% effective concentration (EC50) on RORγ-LBD and at Gal4-RORγ-LBD were below 500 nM and 500 to 5000 nM, respectively.

With `COc1cccc(Cl)c1/C=C/c1ccc2c(c1)N(S(=O)(=O)c1cccc(C(F)(F)F)c1)C[C@H](CCC(=O)O)O2` [Example 89EY, (S,E)-3-(6-(2-chloro-6-methoxystyryl)-4-((3-(trifluoromethyl)phenyl)-sulfonyl)-3,4-dihydro-2H-benzo[b][1,4]oxazin-2-yl)propanoic acid], the EC50 was below 500 nM at RORγ-LBD and 500 to 5000 nM on Gal4-RORγ-LBD.

Consider `COC(=O)CC[C@H]1CN(S(=O)(=O)c2cccc(C(F)(F)F)c2)c2cc(/C=C/c3c(Cl)cccc3OC)ccc2O1` [Example 89EZ, methyl (S,E)-3-(6-(2-chloro-6-methoxystyryl)-4-((3-(trifluoromethyl)phenyl)-sulfonyl)-3,4-dihydro-2H-benzo[b][1,4]oxazin-2-yl)propanoate], for which the concentration giving a half-maximal response (EC50) on RORγ-LBD and on Gal4-RORγ-LBD was below 500 nM throughout.

In the case of `CCOc1ncc(C(F)(F)F)cc1S(=O)(=O)N1C[C@H](CCC(=O)O)Oc2ccc(/C=C/c3c(Cl)cccc3OC)cc21` [Example 89FA, (S,E)-3-(6-(2-chloro-6-methoxystyryl)-4-((2-ethoxy-5-(trifluoromethyl)pyridin-3-yl)sulfonyl)-3,4-dihydro-2H-benzo[b][1,4]oxazin-2-yl)propanoic acid], the concentration for a half-maximal effect (EC50) on RORγ-LBD and on Gal4-RORγ-LBD was below 500 nM each time.

Turning to `CCOc1ncc(C(F)(F)F)cc1S(=O)(=O)N1C[C@H](CCC(=O)OC)Oc2ccc(/C=C/c3c(Cl)cccc3OC)cc21` [Example 89FB, methyl (S,E)-3-(6-(2-chloro-6-methoxystyryl)-4-((2-ethoxy-5-(trifluoromethyl)pyridin-3-yl)sulfonyl)-3,4-dihydro-2H-benzo[b][1,4]oxazin-2-yl)propanoate], the 50% effective concentration (EC50) was below 500 nM at RORγ-LBD and 500 to 5000 nM at Gal4-RORγ-LBD.

Take `O=C(O)CC[C@H]1CN(S(=O)(=O)c2cc(C(F)(F)F)cnc2OCCCO)c2cc(/C=C/c3c(F)cccc3Cl)ccc2O1` [Example 89FC, (S,E)-3-(6-(2-chloro-6-fluorostyryl)-4-((2-(3-hydroxypropoxy)-5-(trifluoromethyl)pyridin-3-yl)sulfonyl)-3,4-dihydro-2H-benzo[b][1,4]-oxazin-2-yl)propanoic acid]: the concentration for a half-maximal effect (EC50) on RORγ-LBD was below 500 nM; at Gal4-RORγ-LBD, 500 to 5000 nM.

Turning to `COC(=O)CC[C@H]1CN(S(=O)(=O)c2cc(C(F)(F)F)cnc2OCCCO)c2cc(/C=C/c3c(F)cccc3Cl)ccc2O1` [Example 89FD, methyl (S,E)-3-(6-(2-chloro-6-fluorostyryl)-4-((2-(3-hydroxypropoxy)-5-(trifluoromethyl)pyridin-3-yl)sulfonyl)-3,4-dihydro-2H-benzo[b][1,4]-oxazin-2-yl)propanoate], the EC50 at RORγ-LBD was below 500 nM; on Gal4-RORγ-LBD, 500 to 5000 nM.

With `CCOc1nn(CC)cc1S(=O)(=O)N1C[C@H](CCC(=O)O)Oc2ccc(/C=C/c3c(Cl)cccc3C(C)(F)F)cc21` [Example 89FE, (S,E)-3-(6-(2-chloro-6-(1,1-difluoroethyl)styryl)-4-((3-ethoxy-1-ethyl-1H-pyrazol-4-yl)sulfonyl)-3,4-dihydro-2H-benzo[b][1,4]oxazin-2-yl)propanoic acid], the concentration for a half-maximal effect (EC50) at RORγ-LBD and at Gal4-RORγ-LBD was below 500 nM in each case.

`CCOc1nn(CC)cc1S(=O)(=O)N1C[C@H](CCC(=O)OC)Oc2ccc(/C=C/c3c(Cl)cccc3C(C)(F)F)cc21` [Example 89FF, methyl (S,E)-3-(6-(2-chloro-6-(1,1-difluoroethyl)styryl)-4-((3-ethoxy-1-ethyl-1H-pyrazol-4-yl)sulfonyl)-3,4-dihydro-2H-benzo[b][1,4]oxazin-2-yl)propanoate]: the figures for the half-maximal effective concentration (EC50) on RORγ-LBD and on Gal4-RORγ-LBD were below 500 nM and 500 to 5000 nM, respectively.

`CCOc1ncc(C(F)(F)F)cc1S(=O)(=O)N1C[C@H](CCC(=O)O)Oc2ccc(/C=C/c3c(Cl)cccc3C(C)(F)F)cc21` [Example 89FG, (S,E)-3-(6-(2-chloro-6-(1,1-difluoroethyl)styryl)-4-((2-ethoxy-5-(trifluoromethyl)-pyridin-3-yl)sulfonyl)-3,4-dihydro-2H-benzo[b][1,4]-oxazin-2-yl)propanoic acid]: the concentration giving a half-maximal response (EC50) at RORγ-LBD and on Gal4-RORγ-LBD was below 500 nM each time.

Consider `CCOc1ncc(C(F)(F)F)cc1S(=O)(=O)N1C[C@H](CCC(=O)OC)Oc2ccc(/C=C/c3c(Cl)cccc3C(C)(F)F)cc21` [Example 89FH, methyl (S,E)-3-(6-(2-chloro-6-(1,1-difluoroethyl)styryl)-4-((2-ethoxy-5-(trifluoromethyl)-pyridin-3-yl)sulfonyl)-3,4-dihydro-2H-benzo[b][1,4]-oxazin-2-yl)propanoate], for which the half-maximal effective concentration (EC50) at RORγ-LBD and on Gal4-RORγ-LBD was below 500 nM each time.

Regarding `CC(F)(F)c1cccc(Cl)c1/C=C/c1ccc2c(c1)N(S(=O)(=O)c1cc(C(F)(F)F)cnc1OCCO)C[C@H](CCC(=O)O)O2` [Example 89FI, (S,E)-3-(6-(2-chloro-6-(1,1-difluoroethyl)styryl)-4-((2-(2-hydroxyethoxy)-5-(trifluoromethyl)pyridin-3-yl)sulfonyl)-3,4-dihydro-2H-benzo[b][1,4]-oxazin-2-yl)propanoic acid], the EC50 on RORγ-LBD and on Gal4-RORγ-LBD was below 500 nM throughout.

Turning to `O=C(O)CC[C@H]1CN(S(=O)(=O)c2cc(C(F)(F)F)cnc2OCC(O)CO)c2cc(/C=C/c3c(F)cccc3Cl)ccc2O1` (stereo partly drawn) [Example 89FJ, 3-((2S)-6-((E)-2-chloro-6-fluorostyryl)-4-((2-(2,3-dihydroxypropoxy)-5-(trifluoromethyl)pyridin-3-yl)sulfonyl)-3,4-dihydro-2H-benzo[b][1,4]oxazin-2-yl)propanoic acid], the EC50 on RORγ-LBD is below 500 nM; on Gal4-RORγ-LBD, 500 to 5000 nM.
